{"source": "patent US11389449B2", "about": "“Treatment of metabolic syndrome with an sGC stimulator” (Cyclerion Therapeutics, Inc., priority 2017, dated 2022)", "key": {"ZSF1 obese rats [1]": {"system": "ZSF1 obese rats", "assay": "Oral glucose tolerance test (OGTT) and fasting glucose in ZSF1 rats at week 10", "format": "in vivo, rat", "conditions": "enalapril 3 mpk", "experimental": "Male ZSF1 rats (body weight 400-430 grams (lean control) and 500-605 grams (obese) at baseline) were used for this study. All animals were housed in a room under controlled conditions of temperature (72±8° F.), relative humidity of 30-70% and a 12-hour light-dark cycle (lights on at 6:00 AM and off at 6:00 PM) at a fully AAALAC accredited, USDA registered and OLAW assured laboratory animal research facility. All animals were allowed free access to rodent chow (Purina 5008+/−test articles) and water (+/−enalapril).\n(§1) Blood and 24-hour urine samples were obtained from all animals at day 0 (15 weeks of age; prior to the initiation of enalapril treatment). Animals in Groups 3, 7, 8 and 9 were placed on drinking water containing enalapril and kept on Purina 5008 rodent chow (C13000). Animals in Group 1, 2, 4, 5 and 6 were kept on Purina 5008 rodent chow and drinking water. Ten days after the initiation of enalapril treatment, blood and 24-hour urine samples were collected from all animals. After day 10 blood and urine collections, animals in Groups 4, 5 and 6 received Compound I at 1, 3 and 10 mg/kg/day, respectively for 11 weeks. In addition to enalapril treatment, animals in Groups 7, 8 and 9 received Compound I at 1, 3 and 10 mg/kg/day, respectively for an additional 11 weeks.\n(§2) 10 weeks after the initiation of Compound I treatment, animals (27 weeks of age) were fasted for 18 hours. Serum samples were collected for the measurement of fasting insulin levels. Serum insulin levels were determined using the Rat Insulin ELISA kit (Cat #ELR-Insulin, RayBiotech, Inc.)\nFor OGTT, animals were given glucose solution (50% Dextrose) at 2 g/kg via oral gavage. Blood samples were collected prior to oral glucose administration (0 minute) and 30, 60, 90, 120 and 180 minutes after administration. Blood glucose levels were measured using a standard blood glucose monitoring system (AlphaTRAK). The blood glucose reading at time 0 (prior to glucose administration) corresponds to the fasting glucose measurement.\n(§3) The data are expressed as mean±SEM. […] One-tailed tests were used for comparison of variables. Statistical significance is indicated by P values less than 0.05."}, "ZSF1 obese rats [2]": {"system": "ZSF1 obese rats", "assay": "ZSF1 rat study: serum clinical chemistry (cholesterol, triglycerides), body weight, clinical observations", "format": "in vivo", "conditions": "ZSF1 obese rats; enalapril 3 mg/kg/day; Animal #8; 3 days after initiation", "description": "as §1\nBody weight and 24-hour water intake were obtained at least once every other week. 24-hour food intake was measured at baseline and week 8.\nPlasma (for biomarker) and serum (for clinical chemistry analysis) samples were collected from all treatment groups at baseline, day 10, weeks 5 and 9 prior to placing the animals into the metabolic cages. Plasma samples were obtained from Groups 3-9 for measurement of compound exposure levels at weeks 5 and 11. Terminal plasma and serum samples were obtained at necropsy.\nFor serum samples, blood was collected in serum separator tubes, maintained at room temperature for at least 30 minutes and then centrifuged at 6000 rpm for 10 minutes. Serum samples were stored at −80° C. until analysis. Urine and serum samples were analyzed using the Randox Daytona Clinical Chemistry Analyzer. All measurements were performed in accordance with manufacturer's instructions.\nAnimal #8 (in Group 3, ZSF1—enalapril 3 mg/kg/day) was found dead 3 days after the initiation of enalapril treatment."}, "ZSF1 obese rats [3]": {"system": "ZSF1 obese rats", "assay": "Fasting serum insulin in ZSF1 rats (Rat Insulin ELISA)", "format": "in vivo", "conditions": "week 10, enalapril 3 mpk", "description": "as §1, §2, §3"}}}
{"smiles": "CCOC(=O)[C@H](CCc1ccccc1)N[C@@H](C)C(=O)N1CCC[C@H]1C(=O)O", "note": "[enalapril, reference compound]", "values": [{"measurement": "Fasting Blood Glucose (0 minute)", "setting": "ZSF1 obese rats [1]", "value": "255 ± 13", "unit": "mg/dL"}, {"measurement": "OGTT Area Under Curve (AUC)", "setting": "ZSF1 obese rats [1]", "value": "84459 ± 1409"}, {"measurement": "OGTT Blood Glucose 120 minutes", "setting": "ZSF1 obese rats [1]", "value": "452 ± 10", "unit": "mg/dL"}, {"measurement": "OGTT Blood Glucose 180 minutes", "setting": "ZSF1 obese rats [1]", "value": "435 ± 9", "unit": "mg/dL"}, {"measurement": "clinical observation", "setting": "ZSF1 obese rats [2]", "value": "found dead"}, {"measurement": "Fasting Insulin", "setting": "ZSF1 obese rats [3]", "value": "11.4 ± 1.7", "unit": "μIU/mL"}]}
